Data reported in publication PMC11277476, “Synthesis and Biological Evaluation of Novel 2-Aroyl Benzofuran-Based Hydroxamic Acids as Antimicrotubule Agents” (International Journal of Molecular Sciences, 2024).
Read-outs that look alike come from different tables or passages of the source.

Legend:
[1] = tested on: MDA-MB-231 cells; test: In vitro growth inhibition (resazurin, 72 h), MDA-MB-231; type: cell-based; details: Homo sapiens, mean ± SE
[2] = tested on: A549 cells; test: In vitro growth inhibition (resazurin, 72 h), A549; type: cell-based; details: Homo sapiens, mean ± SE
[3] = tested on: HeLa cells; test: In vitro growth inhibition (resazurin, 72 h), HeLa; type: cell-based; details: Homo sapiens, concentration inhibiting tumor cell proliferation by 50%, mean ± SE
[4] = tested on: HT-29 cells; test: In vitro growth inhibition (resazurin, 72 h), HT-29; type: cell-based; details: Homo sapiens, mean ± SE
[5] = tested on: MCF-7 cells; test: In vitro growth inhibition (resazurin, 72 h), MCF-7; type: cell-based; details: Homo sapiens, MCF7, mean ± SE
[6] = tested on: panel of five human cancer cell lines (HeLa, MDA-MB-231, A549, HT-29, MCF-7); test: In vitro growth inhibition, range over the panel of five cancer cell lines
Description: All the cell lines were purchased from the American Type Culture Collection (ATCC, Manassas, VA, USA). Drug stock solutions were prepared for each compound by dissolving them in DMSO at 10 mM.
Cancer cells were seeded in tissue treated, flat bottom, 384-well plates (Corning, Corning, NY, USA) according to their optimal density, in 27 μL of complete medium per well, using a Microlab STAR 96-CORE liquid handling system (Hamilton Bonaduz, Bonaduz, Switzerland) as described previously [75]. Each compound was tested in a 6-points 2-fold dose–response curve, and each dose was tested in duplicate within each plate, in three independent experiments. The final concentration of DMSO in the wells never exceeded 0.1%, which was the maximum concentration.
Only plates with acceptable Z-prime quality metrics (Z′ > 0.6) were further analyzed for the drug screening. Raw data were normalized according to the following equation: cell viability (%) = (x − POS)/(NEG − POS) × 100, where x is the relative fluorescence units (RFU) collected from each single well, NEG is the mean of intraplate negative controls (DMSO, corresponding to 100% cell viability), and POS is the mean of intraplate positive controls (Bortezomib 1 μΜ, equal to 0% cell viability).

[7] = tested on: HT-29 cells; test: Annexin V-PI flow cytometric analysis of apoptosis, HT-29; type: cell-based, human; details: 96 h
Description: The quantification of apoptosis induced by the test compounds was carried out with flow cytometric analysis using the Annexin-V Fluos kit (Roche Diagnostics, Milan, Italy) following the manufacturer’s instructions. Cancer cells treated with the test compounds for the indicated time points and concentrations were then labeled with annexin V/FITC and PI and analyzed with BD FACS Celesta^TM Flow Cytometer (BD Bioscience, Franklin Lakes, NJ, USA) using the FL1 and FL3 channel, respectively, and FlowJo_v10.7.1 software.

[8] = tested on: HT-29 cells; test: Cell cycle analysis (PI, flow cytometry); type: cell-based, human; details: 250 nM for 24 h (figure legend)
Description: HT29 cells were treated with the indicated compounds for 24 h and then harvested and fixed in 70% ice-cold ethanol for 24 h. The cells were next treated with a 0.1% v/v solution of Triton X-100 in phosphate buffered saline (PBS) containing 10 μg/mL RNAse A and 20 μg/mL PI. The cells were incubated at room temperature for 30 min and then analyzed on a BD FACS Celesta^TM Flow Cytometer (BD Bioscience, Franklin Lakes, NJ, USA) in the FL3 channel. DNA histograms were analyzed using FlowJo_v10.7.1 software (BD Bioscience, Franklin Lakes, NJ, USA).

[9] = tested on: bovine brain tubulin; test: Inhibition of tubulin polymerization (turbidimetric); type: biochemical; details: tubulin at 10 μM; 20 min incubation at 30 °C; read-out: Tubulin Assembly IC50 ± SD
Description: (§1) Bovine brain tubulin was purified as described previously. To evaluate the effects of the compounds on tubulin assembly in vitro [77], varying concentrations were preincubated with 10 μM tubulin in 0.8 M monosodium glutamate (pH 6.6) at 30 °C, and the reaction mixtures were then cooled to 0 °C. After addition of GTP, the mixtures were transferred to 0 °C cuvettes in Beckman Coulter (Brea, CA, USA) DU-7400/DU-7500 recording spectrophotometers equipped with electronic temperature controllers and were warmed to 30 °C, and the assembly of tubulin was observed turbidimetrically. […] Inhibition of colchicine binding to tubulin was measured as described before, except that the reaction mixtures contained 0.5 μM tubulin and 5 μM each of [^3H]colchicine and test compound. Only one DEAE-cellulose filter was used per sample, and filtration was via gravity.

[10] = target: T1, human recombinant HDAC6 (Homo sapiens, UniProt Q9UBN7); test: HDAC isoform inhibition, fluorogenic substrate, HDAC6; type: biochemical; details: mean ± SE; for IC50: read-out: IC50 (µM) hHDAC6
T1 construct: purchased BPS Bioscience 50056
T1 sequence (Q9UBN7 1-1215): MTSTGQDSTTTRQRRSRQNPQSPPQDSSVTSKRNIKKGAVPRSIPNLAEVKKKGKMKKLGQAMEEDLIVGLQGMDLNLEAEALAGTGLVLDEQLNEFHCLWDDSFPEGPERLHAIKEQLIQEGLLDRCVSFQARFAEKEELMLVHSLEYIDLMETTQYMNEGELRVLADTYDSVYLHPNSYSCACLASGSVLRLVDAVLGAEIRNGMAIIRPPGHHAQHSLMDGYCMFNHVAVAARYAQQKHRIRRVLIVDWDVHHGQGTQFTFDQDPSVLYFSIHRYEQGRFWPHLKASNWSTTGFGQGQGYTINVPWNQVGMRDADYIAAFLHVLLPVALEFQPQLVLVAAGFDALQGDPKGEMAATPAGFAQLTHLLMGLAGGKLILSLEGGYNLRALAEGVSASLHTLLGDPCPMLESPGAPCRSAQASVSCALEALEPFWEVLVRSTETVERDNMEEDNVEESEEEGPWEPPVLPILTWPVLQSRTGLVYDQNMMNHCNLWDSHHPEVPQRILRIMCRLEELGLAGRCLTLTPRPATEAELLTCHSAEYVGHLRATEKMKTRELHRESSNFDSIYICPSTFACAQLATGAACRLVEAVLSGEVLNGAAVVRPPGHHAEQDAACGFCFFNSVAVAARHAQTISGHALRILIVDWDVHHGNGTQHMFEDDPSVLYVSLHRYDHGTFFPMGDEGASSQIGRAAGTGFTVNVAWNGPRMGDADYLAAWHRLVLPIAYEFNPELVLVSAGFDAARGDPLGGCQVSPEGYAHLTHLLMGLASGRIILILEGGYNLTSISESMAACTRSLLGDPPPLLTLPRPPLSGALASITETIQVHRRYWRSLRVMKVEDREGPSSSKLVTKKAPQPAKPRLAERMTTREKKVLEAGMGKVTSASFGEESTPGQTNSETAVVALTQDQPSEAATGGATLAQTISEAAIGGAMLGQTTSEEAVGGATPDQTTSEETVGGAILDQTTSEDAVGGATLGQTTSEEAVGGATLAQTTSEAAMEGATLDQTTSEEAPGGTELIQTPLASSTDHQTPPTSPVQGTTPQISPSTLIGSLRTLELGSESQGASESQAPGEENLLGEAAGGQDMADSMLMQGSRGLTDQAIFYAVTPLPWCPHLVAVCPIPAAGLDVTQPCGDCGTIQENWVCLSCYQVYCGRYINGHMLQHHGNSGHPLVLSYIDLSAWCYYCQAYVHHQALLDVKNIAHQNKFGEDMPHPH
Description: Further experiments were also carried out to evaluate the inhibitory activities of test compounds on selected HDAC isoforms. […] Following an incubation of 15 min at RT, fluorescence was measured in an EnSight multimodal plate reader (PerkinElmer, Boston, MA, USA) with an excitation wavelength of 360 nm and an emission wavelength of 450 nm.

[11] = tested on: tubulin (colchicine site); test: Inhibition of [3H]colchicine binding to tubulin; parameters: species or system bovine; details: tubulin 0.5 µM, [3H]colchicine 5 µM, tested compound 5 µM
Description: as §1

[12] = read-out: IC50 values, range or bound over the cancer cell line panel

Structure (SMILES)	IC50 [1] [nM]	IC50 [2] [nM]	IC50 [3] [nM]	IC50 [4] [nM]	melting point [°C]	IC50 [5] [nM]	IC50 [6, 12] [nM]	IC50 [9] [nM]	IC50 [10] [µM]	Colchicine Binding % Inhibition ± SD [11] [%]	induction of apoptosis / cell death (annexin V/PI), in words [7]	Percentage of HT-29 cells in G1 phase [8] [%]	Percentage of HT-29 cells in G2/M phase [8] [%]	Percentage of HT-29 cells in S phase [8] [%]	IC50 (µM) hHDAC6 [10]	IC50 ([6]; read-out: IC50 values, range over the cancer cell line panel) [nM]
COc1cc(C(=O)c2oc3ccc(/C=C/C(=O)NO)cc3c2C)cc(OC)c1OC [Compound 6h, (E)-N-Hydroxy-3-(3-methyl-2-(3,4,5-trimethoxybenzoyl)benzofuran-5-yl)acrylamide]	> 10000	> 10000	> 10000	> 10000	188 to 190	> 10000	> 10000									
CC(/C=C/C(=O)NO)=C\[C@@H](C)C(=O)c1ccc(N(C)C)cc1 [TSA, Trichostatin, reference compound]											sensitive only to the higher dose	43.90	38.65	17.44		
COc1cc2oc(C(=O)c3ccc(OC)c(OC)c3)c(C)c2cc1/C=C/C(=O)NO [Compound 6b, (E)-3-(2-(3,4-Dimethoxybenzoyl)-6-methoxy-3-methylbenzofuran-5-yl)-N-hydroxyacrylamide]	72.6 ± 5.03	187 ± 1.02	36.8 ± 4.13	401 ± 2.03	198 to 199	40 ± 4		1100 ± 200	> 30	41 ± 5						
COc1cccc(C(=O)c2oc3cc(OC)c(C#CC(=O)NO)cc3c2C)c1 [Compound 11e, N-Hydroxy-3-[6-methoxy-2-(3-methoxybenzoyl)-3-methyl-1-benzofuran-5-yl]prop-2-ynamide]	96.7 ± 1.65	94.4 ± 3.03	8.4 ± 0.98	4.89 ± 0.03		15		420 ± 30	> 30	81 ± 3					does not show any activity at the highest concentration tested	
C#Cc1cc2c(C)c(C(=O)c3cc(OC)c(OC)c(OC)c3)oc2cc1OC [Compound 8, (5-ethynyl-6-methoxy-3-methyl-benzofuran-2-yl)-(3,4,5-trimethoxyphenyl)methanone]	81.2 ± 6	122 ± 8.6	18.2 ± 0.02	207 ± 14	186 to 188											18 to 207
COc1ccc(C(=O)c2oc3cc(OC)c(/C=C/C(=O)NO)cc3c2C)cc1 [Compound 6d, (E)-N-Hydroxy-3-(6-methoxy-2-(4-methoxybenzoyl)-3-methylbenzofuran-5-yl)acrylamide]	322 ± 12.4	222 ± 1.09	47.6 ± 1.22	881 ± 8.23	168 to 170	59 ± 10		1700 ± 100	12.6 ± 0.8	27 ± 4						

The next lines start with results.

IC50 [1] [nM]	IC50 [2] [nM]	IC50 [3] [nM]	IC50 [4] [nM]	melting point [°C]	IC50 [5] [nM]	IC50 [6, 12] [nM]	IC50 [9] [nM]	IC50 [10] [µM]	Colchicine Binding % Inhibition ± SD [11] [%]	Structure (SMILES)	induction of apoptosis / cell death (annexin V/PI), in words [7]	Percentage of HT-29 cells in G1 phase [8] [%]	Percentage of HT-29 cells in G2/M phase [8] [%]	Percentage of HT-29 cells in S phase [8] [%]	IC50 (µM) hHDAC6 [10]	IC50 ([6]; read-out: IC50 values, range over the cancer cell line panel) [nM]
101 ± 0.03	206 ± 2.92	15.2 ± 0.02	1.58 ± 0.06	205 to 206						COc1cc2oc(C(=O)c3ccccc3)c(C)c2cc1C#CC(=O)NO [Compound 11g, 3-(2-Benzoyl-6-methoxy-3-methyl-benzofuran-5-yl)prop-2yne hydroxamic acid]						
345 ± 4.03	276 ± 6.74	60.5 ± 2.26	4568 ± 21.4	243 to 245	240 ± 10		5400 ± 100		20 ± 2	COc1cc2oc(C(=O)c3ccccc3OC)c(C)c2cc1C#CC(=O)NO [Compound 11f, N-Hydroxy-3-[6-methoxy-2-(2-methoxybenzoyl)-3-methyl-1-benzofuran-5-yl]prop-2-ynamide]						
377 ± 1.09	972 ± 7.47	69.4 ± 1.45	2.16 ± 0.86	276 to 277	> 10000		2700 ± 70		30 ± 2	COc1cc2oc(C(=O)c3ccc(OC)c(OC)c3)c(C)c2cc1C#CC(=O)NO [Compound 11b, 3-[2-(3,4-Dimethoxybenzoyl)-6-methoxy-3-methyl-1-benzofuran-5-yl]-N-hydroxyprop-2-ynamide]						
43.9 ± 3	45.3 ± 2.93	7.3 ± 0.03	96.5 ± 2.45	248 to 250	20 ± 0.7		560 ± 60	13.8 ± 0.8	82 ± 1	COc1cc(OC)cc(C(=O)c2oc3cc(OC)c(C#CC(=O)NO)cc3c2C)c1 [Compound 11c, 3-[2-(3,5-Dimethoxybenzoyl)-6-methoxy-3-methyl-1-benzofuran-5-yl]-N-hydroxyprop-2-ynamide]						
4.09 ± 0.06	5.07 ± 0.22	1.43 ± 0.67	> 10000	222 to 224		1500 to 10000				COc1ccc(C(=O)c2oc3cc(OC)c(C#CC(=O)NO)cc3c2C)cc1 [Compound 11d, N-Hydroxy-3-[6-methoxy-2-(4-methoxybenzoyl)-3-methyl-1-benzofuran-5-yl]prop-2-ynamide]						
> 10000	> 10000	> 10000	> 10000	254 to 256	> 10000	> 10000				COc1cc(C(=O)c2oc3ccc(C#CC(=O)NO)cc3c2C)cc(OC)c1OC [Compound 11h, 3-[3-Methyl-2-(3,4,5-trimethoxybenzoyl)benzofuran-5-yl]prop-2-yne hydroxamic acid]						
